Each block holds one compound with its values, some of them ahead of it.
How the values were obtained:
[1] = LNP average particle size and polydispersity by dynamic light scattering; type: physicochemical; settings: LNP with the compound as amine lipid
Text: The LNPs have a size of about 1 to about 1,000 nm, about 10 to about 500 nm, about 20 to about 500 nm, in a sub-embodiment about 50 to about 400 nm, in a sub-embodiment about 50 to about 300 nm, in a sub-embodiment about 50 to about 200 nm, and in a sub-embodiment about 50 to about 150 nm, and in another sub-embodiment about 60 to about 120 nm. Preferably, the LNPs have a size from about 60 nm to about 100 nm. The average sizes (diameters) of the fully formed LNP, may be measured by dynamic light scattering on a Malvern Zetasizer. The LNP sample is diluted in phosphate buffered saline (PBS) so that the count rate is approximately 200-400 kcps. The data is presented as a weighted average of the intensity measure.
In some embodiments, the LNPs have a size of about 75 to about 120 nm. In some embodiments, the LNPs have a size of about 75 to about 100 nm. Unless indicated otherwise, all sizes referred to herein are the average sizes (diameters) of the fully formed nanoparticles, as measured by dynamic light scattering on a Malvern Zetasizer. The nanoparticle sample is diluted in phosphate buffered saline (PBS) so that the count rate is approximately 200-400 kcps. The data is presented as a weighted-average of the intensity measure (Z-average diameter).
Dynamic Light Scattering (“DLS”) is used to characterize the polydispersity index (“pdi”) and size of the LNPs of the present disclosure. DLS measures the scattering of light that results from subjecting a sample to a light source. PDI, as determined from DLS measurements, represents the distribution of particle size (around the mean particle size) in a population, with a perfectly uniform population having a PDI of zero. Electropheretic light scattering is used to characterize the surface charge of the LNP at a specified pH. The surface charge, or the zeta potential, is a measure of the magnitude of electrostatic repulsion/attraction between particles in the LNP suspension. Asymmetric-Flow Field Flow Fractionation—Multi-Angle Light Scattering (AF4-MALS) is used to separate particles in the composition by hydrodynamic radius and then measure the molecular weights, hydrodynamic radii and root mean square radii of the fractionated particles. […] Nanoparticle tracking analysis (NTA, Malvern Nanosight) can be used to determine particle size distribution as well as particle concentration. LNP samples are diluted appropriately and injected onto a microscope slide. A camera records the scattered light as the particles are slowly infused through field of view. After the movie is captured, the Nanoparticle Tracking Analysis processes the movie by tracking pixels and calculating a diffusion coefficient. This diffusion coefficient can be translated into the hydrodynamic radius of the particle. The instrument also counts the number of individual particles counted in the analysis to give particle concentration.
LNP compositions are analyzed for average particle size, polydispersity index (pdi), total RNA content, encapsulation efficiency of RNA, and zeta potential. LNP compositions may be further characterized by lipid analysis, AF4-MALS, NTA, and/or cryo-EM. Average particle size and polydispersity are measured by dynamic light scattering (DLS) using a Malvern Zetasizer DLS instrument. LNP samples were diluted with PBS buffer prior to being measured by DLS. Z-average diameter which is an intensity-based measurement of average particle size was reported along with number average diameter and pdi. A Malvern Zetasizer instrument is also used to measure the zeta potential of the LNP. Samples are diluted 1:17 (50 μL into 800 μL) in 0.1×PBS, pH 7.4 prior to measurement.

[2] = RNA encapsulation efficiency of LNP (Ribogreen fluorescence assay); type: physicochemical; settings: LNP with the compound as amine lipid
Description: A fluorescence-based assay (Ribogreen®, ThermoFisher Scientific) is used to determine total RNA concentration and free RNA. Encapsulation efficiency is calculated as (Total RNA—Free RNA)/Total RNA. LNP samples are diluted appropriately with 1× TE buffer containing 0.2% Triton-X 100 to determine total RNA or 1× TE buffer to determine free RNA. Standard curves are prepared by utilizing the starting RNA solution used to make the compositions and diluted in 1× TE buffer+/−0.2% Triton-X 100. Diluted RiboGreen® dye (according to the manufacturer's instructions) is then added to each of the standards and samples and allowed to incubate for approximately 10 minutes at room temperature, in the absence of light. A SpectraMax M5 Microplate Reader (Molecular Devices) is used to read the samples with excitation, auto cutoff and emission wavelengths set to 488 nm, 515 nm, and 525 nm respectively. Total RNA and free RNA are determined from the appropriate standard curves.
Encapsulation efficiency is calculated as (Total RNA−Free RNA)/Total RNA. The same procedure may be used for determining the encapsulation efficiency of a DNA-based cargo component. For single-strand DNA, Oligreen Dye may be used and for double-strand DNA, Picogreen Dye.

[3] = pKa of amine lipid by TNS fluorescence; type: physicochemical; settings: probe TNS (6-(p-toluidino)-2-naphthalenesulfonic acid sodium salt), unformulated amine lipid in ethanol, sodium phosphate buffers -9.0
Description: The pKa of each amine lipid was determined according to the method in Jayaraman, et al. (Angewandte Chemie, 2012) with the following adaptations. The pKa was determined for unformulated amine lipid in ethanol. Lipid stock solutions (2.94 mM) were diluted into Sodium Phosphate Buffers (0.1 M, Boston Bioproducts) of different pH (pH-range: 4.5-9.0) yielding a final lipid concentration of approx. 100 μM. The test samples were supplemented with TNS {6-(p-Toluidino)-2-naphthalenesulfonic acid sodium salt}, incubated and the fluorescence intensity was measured using excitation and emission wavelengths of 321 nm and 448 nm, respectively. The recorded data were normalized and the respective pKa values were derived from sigmoidal fitting.

mouse TTR = assay: Serum TTR ELISA in mice after LNP delivery; type: in vivo; settings: mouse serum, relative to TSS control of same experiment
Description: For studies measuring in vivo editing in liver, CD-1 female mice were dosed at 0.1 mpk unless otherwise noted. Animals were euthanized at 6 or 7 days by exsanguinationvia cardiac puncture under isoflourane anesthesia. Liver tissue was collected from each animal for DNA extraction and analysis. Blood was collected into serum separator tubes or into tubes containing buffered sodium citrate for plasma as described herein. Cohorts of mice were measured for editing by Next-Generation Sequencing (NGS).
Blood was collected and the serum was isolated as indicated. The total mouse TTR serum levels were determined using a Mouse Prealbumin (Transthyretin) ELISA Kit (Aviva Systems Biology, Cat. OKIA00111). Briefly, sera were serial diluted with kit sample diluent, e.g. to a final dilution of 10,000-fold and/or 2,500-fold. The diluted sample was then added to the ELISA plates and the assay was then carried out according to directions. Serum TTR data from treatment groups are expressed as a percentage of vehicle control levels.

[4] = Expt. 5, composition ratio (mol %) 50/10/38.5/1.5
[5] = Expt. 8, composition ratio (mol %) 50/9/38/3 for Cmpnd 49, 50/10/38.5/1.5 for the others
[6] = Expt. 1, composition ratio (mol %) 50/9/38/3 for Cmpnd 49, 50/10/38.5/1.5 for the others
[7] = Expt. 9, composition ratio (mol %) 50/9/38/3 for Cmpnd 49, 50/10/38.5/1.5 for the others
[8] = Expt. 10, composition ratio (mol %) 50/9/38/3 for Cmpnd 49, 50/10/38.5/1.5 for the others
[9] = Expt. 6, composition ratio (mol %) 50/9/38/3 for Cmpnd 49, 50/10/38.5/1.5 for the others

SMILES: CCCCCCCCCCCOC(=O)CCCCCCCC(=O)OCC(COC(=O)CCCCCCCC(=O)OCCCCCCCCCCC)OC(=O)CCC(CCCCCCCC)OC(=O)NCCN(C)CC (centres unmarked) [Compound 60, O′1,O1-(2-((4-(((2-(ethyl(methyl)amino)ethyl)carbamoyl)oxy)dodecanoyl)oxy)propane-1,3-diyl) 9,9′-diundecyl di(nonanedioate)]
Num Ave Size (nm) [1, 6]: 79.57 nm
PDI [1, 6]: 0.07
Z-Ave Size (nm) [1, 6]: 103.40 nm
Encapsulation (%) [2, 6]: 97%
pKa [3]: 6.22
Serum TTR % TSS (mouse TTR; dose 0.1 mpk): 60.51 % TSS

SMILES: CCCCC/C=C\C/C=C\CCCCCCCC(=O)OCC(COC(=O)CCCCCCC/C=C\C/C=C\CCCCC)OC(=O)CCC(CC/C=C\CCCCC)OC(=O)NCCN1CCCC1 (centres unmarked) [Compound 108, 2-(((Z)-4-(((2-(pyrrolidin-1-yl)ethyl)carbamoyl)oxy)tridec-7-enoyl)oxy)propane-1,3-diyl (9Z,9′Z,12Z,12′Z)-bis(octadeca-9,12-dienoate)]
Num Ave Size (nm) [1, 7]: 73 nm
PDI [1, 7]: 0.03
Z-Ave Size (nm) [1, 7]: 89 nm
Encapsulation (%) [2, 7]: 99%
pKa [3]: 6.52
Serum TTR % TSS (mouse TTR; dose 0.03 mpk): 57.12 % TSS

SMILES: CCCCC/C=C\C/C=C\CCCCCCCC(=O)OCC(COC(=O)CCCCCCC/C=C\C/C=C\CCCCC)OC(=O)CCCC(CCCCCCCC)OC(=O)NCCN(C)CC (centres unmarked) [Compound 97, 2-((5-(((2-(ethyl(methyl)amino)ethyl)carbamoyl)oxy)tridecanoyl)oxy)propane-1,3-diyl (9Z,9′Z,12Z,12′Z)-bis(octadeca-9,12-dienoate)]
Num Ave Size (nm) [1, 8]: 75 nm
PDI [1, 8]: 0.03
Z-Ave Size (nm) [1, 8]: 92 nm
Encapsulation (%) [2, 8]: 98%
pKa [3]: 6.38
Serum TTR % TSS (mouse TTR; dose 0.03 mpk): 79% TSS

SMILES: CCCCC/C=C\C/C=C\CCCCCCCC(=O)OCC(COC(=O)CCCCCCC/C=C\C/C=C\CCCCC)OC(=O)CC[C@@H](CCCCCCCC)OC(=O)NCCN(C)CC [Compound 87, 2-(((R)-4-(((2-(ethyl(methyl)amino)ethyl)carbamoyl)oxy)dodecanoyl)oxy)propane-1,3-diyl (9Z,9′Z,12Z,12′Z)-bis(octadeca-9,12-dienoate)]
Num Ave Size (nm) [1, 9]: 63 nm
PDI [1, 9]: 0.06
Z-Ave Size (nm) [1, 9]: 83.00 nm
Encapsulation (%) [2, 9]: 98%
Serum TTR % TSS (mouse TTR; dose 0.03 mpk): 80.21 % TSS
Serum TTR % TSS (mouse TTR; dose 0.1 mpk): 33.33 % TSS

Second part, led by results:

Num Ave Size (nm) [1, 4]: 78 nm
PDI [1, 4]: 0.08
Z-Ave Size (nm) [1, 4]: 104.00 nm
Encapsulation (%) [2, 4]: 98%
pKa [3]: 7.23
SMILES: CCCCC/C=C\C/C=C\CCCCCCCC(=O)OCC(COC(=O)CCCCCCC/C=C\C/C=C\CCCCC)OC(=O)CCC(CCCCCC)OC(=O)NCCN1CCC1 (centres unmarked) [Compound 77, 2-((4-(((2-(azetidin-1-yl)ethyl)carbamoyl)oxy)decanoyl)oxy)propane-1,3-diyl (9Z,9′Z,12Z,12′Z)-bis(octadeca-9,12-dienoate)]
Serum TTR % TSS (mouse TTR; dose 0.03 mpk): 68.3 % TSS
Serum TTR % TSS (mouse TTR; dose 0.1 mpk): 80.6 % TSS

Num Ave Size (nm) [1, 5]: 102 nm
PDI [1, 5]: 0.018
Z-Ave Size (nm) [1, 5]: 124.2 nm
Encapsulation (%) [2, 5]: 99%
pKa [3]: 6.61
SMILES: CCCCC/C=C\C/C=C\CCCCCCCC(=O)OCC(COC(=O)CCCCCCC/C=C\C/C=C\CCCCC)OC(=O)CCC(CCCCC)OC(=O)NCC1CCCN1C (centres unmarked) [Compound 70, 2-((4-((((1-methylpyrrolidin-2-yl)methyl)carbamoyl)oxy)nonanoyl)oxy)propane-1,3-diyl (9Z,9′Z,12Z,12′Z)-bis(octadeca-9,12-dienoate)]
Serum TTR % TSS (mouse TTR; dose 0.03 mpk): 126.29 % TSS
Serum TTR % TSS (mouse TTR; dose 0.1 mpk): 87.49 % TSS

Num Ave Size (nm) [1, 4]: 75 nm
PDI [1, 4]: 0.03
Z-Ave Size (nm) [1, 4]: 91.00 nm
Encapsulation (%) [2, 4]: 99%
pKa [3]: 7.39
SMILES: CCCCC/C=C\C/C=C\CCCCCCCC(=O)OCC(COC(=O)CCCCCCC/C=C\C/C=C\CCCCC)OC(=O)CCC(CCCCCC)OC(=O)NC1CN(C)C1 (centres unmarked) [Compound 84, 2-((4-(((1-methylazetidin-3-yl)carbamoyl)oxy)decanoyl)oxy)propane-1,3-diyl (9Z,9′Z,12Z,12′Z)-bis(octadeca-9,12-dienoate)]
Serum TTR % TSS (mouse TTR; dose 0.03 mpk): 80.3 % TSS
Serum TTR % TSS (mouse TTR; dose 0.1 mpk): 73.2 % TSS

Num Ave Size (nm) [1, 8]: 53 nm
PDI [1, 8]: 0.06
Z-Ave Size (nm) [1, 8]: 70 nm
Encapsulation (%) [2, 8]: 98%
pKa [3]: 5.8
SMILES: CCCCC/C=C\C/C=C\CCCCCCCC(=O)OCC(COC(=O)CCCCCCC/C=C\C/C=C\CCCCC)OC(=O)CCC(CCCCCCCC)OC(=O)NCCN1CCCCC1 (centres unmarked) [Compound 94, 2-((4-(((2-(piperidin-1-yl)ethyl)carbamoyl)oxy)dodecanoyl)oxy)propane-1,3-diyl (9Z,9′Z,12Z,12′Z)-bis(octadeca-9,12-dienoate)]

Num Ave Size (nm) [1, 9]: 73 nm
PDI [1, 9]: 0.02
Z-Ave Size (nm) [1, 9]: 88.00 nm
Encapsulation (%) [2, 9]: 98%
SMILES: CCCCC/C=C\C/C=C\CCCCCCCC(=O)OCC(COC(=O)CCCCCCC/C=C\C/C=C\CCCCC)OC(=O)CC[C@H](CCCCCCCC)OC(=O)NCCN(C)CC [Compound 88, 2-(((S)-4-(((2-(ethyl(methyl)amino)ethyl)carbamoyl)oxy)dodecanoyl)oxy)propane-1,3-diyl (9Z,9′Z,12Z,12′Z)-bis(octadeca-9,12-dienoate)]
Serum TTR % TSS (mouse TTR; dose 0.03 mpk): 75.06 % TSS
Serum TTR % TSS (mouse TTR; dose 0.1 mpk): 33.45 % TSS

Source: patent US12077483B2, “Modified amine lipids” (Intellia Therapeutics, Inc., priority 2018, dated 2024)
